# Results taken from PMC8524670 (Pharmacology Research & Perspectives, 2021).
# Assays:
# CYP2C9 = CYP2C9 (Homo sapiens, UniProt P11712); assay: CYP reversible inhibition in HLMs; conditions: diclofenac
# OAT1 = molecular target: T1, OAT1 (Homo sapiens, UniProt Q4U2R8); assay: SLC inhibition assay in HEK293 cells
# T1 sequence (Q4U2R8 1-563): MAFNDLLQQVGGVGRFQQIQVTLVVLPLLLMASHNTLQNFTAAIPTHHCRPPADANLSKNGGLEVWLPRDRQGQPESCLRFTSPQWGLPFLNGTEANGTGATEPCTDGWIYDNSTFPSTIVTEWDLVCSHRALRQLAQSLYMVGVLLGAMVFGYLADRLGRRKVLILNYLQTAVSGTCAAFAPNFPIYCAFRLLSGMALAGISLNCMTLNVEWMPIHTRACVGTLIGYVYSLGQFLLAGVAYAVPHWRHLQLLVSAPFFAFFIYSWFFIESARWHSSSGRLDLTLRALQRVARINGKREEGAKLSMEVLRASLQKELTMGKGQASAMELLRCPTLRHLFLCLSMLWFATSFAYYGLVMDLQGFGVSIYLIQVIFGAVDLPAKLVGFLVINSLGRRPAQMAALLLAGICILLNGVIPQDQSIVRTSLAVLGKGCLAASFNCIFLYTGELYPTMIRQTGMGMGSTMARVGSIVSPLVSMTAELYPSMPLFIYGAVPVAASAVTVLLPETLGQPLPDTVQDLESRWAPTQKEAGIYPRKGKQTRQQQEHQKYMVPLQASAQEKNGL
# rCYP3A4 = rCYP3A4 (Homo sapiens, UniProt P08684); assay: CYP phenotyping with recombinant CYPs; conditions: 1 μM, only rCYP3A4 among 7 rCYPs
# CYP2C19 = CYP2C19 (Homo sapiens, UniProt P33261); assay: CYP reversible inhibition in HLMs; conditions: S-mephenytoin
# OAT3 = molecular target: T2, OAT3 (Homo sapiens, UniProt Q8TCC7); assay: SLC transportation assay in HEK293 cells; type: in vitro ADME; conditions: uptake ratios <2 at 0.1, 0.3, 5 µM
# T2 sequence (Q8TCC7 1-542): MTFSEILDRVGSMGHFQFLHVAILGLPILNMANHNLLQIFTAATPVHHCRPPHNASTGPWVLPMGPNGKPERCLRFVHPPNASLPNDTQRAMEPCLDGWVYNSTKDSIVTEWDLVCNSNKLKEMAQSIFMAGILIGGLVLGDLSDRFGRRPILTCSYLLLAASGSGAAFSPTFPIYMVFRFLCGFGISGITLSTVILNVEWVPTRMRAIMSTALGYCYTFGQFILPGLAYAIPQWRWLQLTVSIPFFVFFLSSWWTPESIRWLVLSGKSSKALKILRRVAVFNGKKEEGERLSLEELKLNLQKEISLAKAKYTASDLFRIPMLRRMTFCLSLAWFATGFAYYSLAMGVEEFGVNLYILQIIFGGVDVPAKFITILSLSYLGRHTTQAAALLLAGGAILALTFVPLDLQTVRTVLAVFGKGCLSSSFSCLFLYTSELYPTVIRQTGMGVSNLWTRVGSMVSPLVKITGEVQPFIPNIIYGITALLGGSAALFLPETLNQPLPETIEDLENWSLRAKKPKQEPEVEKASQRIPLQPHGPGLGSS
# OCT2 = molecular target: T3, OCT2 (Homo sapiens, UniProt O15244); assay: SLC inhibition assay in HEK293 cells; type: in vitro ADME
# T3 sequence (O15244 1-555): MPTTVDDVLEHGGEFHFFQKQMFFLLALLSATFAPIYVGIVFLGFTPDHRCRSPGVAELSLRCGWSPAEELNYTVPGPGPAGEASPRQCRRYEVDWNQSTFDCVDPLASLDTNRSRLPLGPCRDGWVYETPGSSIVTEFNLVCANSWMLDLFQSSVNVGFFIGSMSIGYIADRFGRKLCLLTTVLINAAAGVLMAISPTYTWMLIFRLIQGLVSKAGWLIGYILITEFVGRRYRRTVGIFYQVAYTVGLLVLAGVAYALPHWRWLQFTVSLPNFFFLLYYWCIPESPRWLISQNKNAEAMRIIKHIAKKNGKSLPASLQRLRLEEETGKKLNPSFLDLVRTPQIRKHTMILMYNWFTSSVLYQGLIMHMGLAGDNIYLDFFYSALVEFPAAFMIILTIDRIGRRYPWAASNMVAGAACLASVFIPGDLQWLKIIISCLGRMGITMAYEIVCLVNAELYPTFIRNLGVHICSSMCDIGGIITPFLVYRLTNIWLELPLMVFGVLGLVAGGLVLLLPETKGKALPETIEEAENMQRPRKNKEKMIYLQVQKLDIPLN
# CYP1A2 = assay: in vitro; conditions: human
# BCRP = conditions: coadministration of zanubrutinib; cited from earlier work
# CYP2B6 = molecular target: T4, CYP2B6 (Homo sapiens, UniProt P20813); assay: CYP reversible inhibition in HLMs; type: in vitro ADME
# T4 sequence (P20813 1-491): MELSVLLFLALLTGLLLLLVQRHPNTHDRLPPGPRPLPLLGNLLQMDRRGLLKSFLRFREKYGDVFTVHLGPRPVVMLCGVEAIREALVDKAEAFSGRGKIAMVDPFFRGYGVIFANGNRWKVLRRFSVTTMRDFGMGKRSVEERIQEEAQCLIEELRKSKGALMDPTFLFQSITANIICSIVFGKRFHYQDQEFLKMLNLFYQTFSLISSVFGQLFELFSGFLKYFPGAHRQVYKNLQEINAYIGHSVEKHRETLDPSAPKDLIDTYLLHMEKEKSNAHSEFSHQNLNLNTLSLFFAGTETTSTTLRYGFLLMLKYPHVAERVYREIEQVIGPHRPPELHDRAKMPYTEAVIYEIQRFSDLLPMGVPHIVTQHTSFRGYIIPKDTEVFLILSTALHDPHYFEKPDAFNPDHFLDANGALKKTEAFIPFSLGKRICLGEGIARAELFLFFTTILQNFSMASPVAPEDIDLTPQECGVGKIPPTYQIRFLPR
# [1] = static model term, liver inhibition
# [2] = human, HEK293 cells overexpressing OCT2 (and MOCK cells), probe metformin
# CYP2C19, sequence (P33261 whole entry): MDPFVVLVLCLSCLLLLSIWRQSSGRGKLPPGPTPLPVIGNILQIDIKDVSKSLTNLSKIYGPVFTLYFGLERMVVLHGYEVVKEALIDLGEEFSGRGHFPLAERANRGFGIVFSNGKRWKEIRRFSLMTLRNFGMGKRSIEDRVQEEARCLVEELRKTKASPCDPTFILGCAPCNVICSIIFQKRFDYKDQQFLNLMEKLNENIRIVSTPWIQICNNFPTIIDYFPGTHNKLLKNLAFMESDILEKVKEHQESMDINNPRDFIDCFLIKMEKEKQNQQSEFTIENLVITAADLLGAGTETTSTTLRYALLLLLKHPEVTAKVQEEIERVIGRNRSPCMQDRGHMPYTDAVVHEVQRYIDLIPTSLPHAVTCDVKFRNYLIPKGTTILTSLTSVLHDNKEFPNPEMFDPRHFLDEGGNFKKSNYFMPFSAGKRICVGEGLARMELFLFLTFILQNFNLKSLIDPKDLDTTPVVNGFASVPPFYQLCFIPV
# CYP2C9, sequence (P11712 whole entry): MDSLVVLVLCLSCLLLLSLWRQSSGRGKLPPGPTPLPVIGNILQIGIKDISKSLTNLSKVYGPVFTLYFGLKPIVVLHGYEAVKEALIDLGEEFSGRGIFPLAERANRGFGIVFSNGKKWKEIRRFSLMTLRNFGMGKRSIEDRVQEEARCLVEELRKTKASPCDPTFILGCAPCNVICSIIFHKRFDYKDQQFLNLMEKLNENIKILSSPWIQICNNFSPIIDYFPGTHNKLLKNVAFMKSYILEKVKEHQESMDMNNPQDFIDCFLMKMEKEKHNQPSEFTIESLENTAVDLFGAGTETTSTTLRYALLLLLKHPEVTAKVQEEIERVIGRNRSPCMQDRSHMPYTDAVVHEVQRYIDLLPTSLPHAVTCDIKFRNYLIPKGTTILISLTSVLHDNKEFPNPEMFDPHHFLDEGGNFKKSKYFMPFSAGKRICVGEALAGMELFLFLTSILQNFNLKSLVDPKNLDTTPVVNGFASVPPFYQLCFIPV
# rCYP3A4, sequence (P08684 whole entry): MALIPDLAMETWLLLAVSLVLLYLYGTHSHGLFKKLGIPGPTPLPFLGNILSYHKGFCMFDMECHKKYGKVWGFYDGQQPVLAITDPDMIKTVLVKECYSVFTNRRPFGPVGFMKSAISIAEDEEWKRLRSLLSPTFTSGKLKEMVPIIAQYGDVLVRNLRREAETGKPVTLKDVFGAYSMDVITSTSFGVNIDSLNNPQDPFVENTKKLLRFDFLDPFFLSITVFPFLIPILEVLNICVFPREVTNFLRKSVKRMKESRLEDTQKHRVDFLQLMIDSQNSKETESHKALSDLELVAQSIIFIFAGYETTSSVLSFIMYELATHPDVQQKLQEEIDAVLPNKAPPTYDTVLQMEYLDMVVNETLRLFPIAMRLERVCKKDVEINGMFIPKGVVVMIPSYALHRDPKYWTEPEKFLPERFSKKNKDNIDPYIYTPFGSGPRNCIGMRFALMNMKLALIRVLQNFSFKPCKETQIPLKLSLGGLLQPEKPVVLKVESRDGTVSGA
structure (smiles),measurement,setting,value
C=CC(=O)N1CCC([C@@H]2CCNc3c(C(N)=O)c(-c4ccc(Oc5ccccc5)cc4)nn32)CC1 [zanubrutinib],R1,"CYP2C9; DDI basic model, hepatic",1.04
same,Ah,CYP2C9; [1],0.96
same,Inhibition of uptake activity,OAT1; 0.05–5 µM,not inhibited
same,activity at 0.05 µM,OAT1; human,103 ± 5.6%
same,activity at 0.2 µM,OAT1; human,106 ± 7.8%
same,activity at 1 µM,OAT1; human,109 ± 3.9%
same,activity at 5 µM,OAT1; human,109 ± 3.3%
same,Disappearance of zanubrutinib with recombinant CYP,rCYP3A4,remarkable disappearance
same,R 3,CYP3A4; DDI basic model value for induction,0.23
same,Cg,"CYP3A4; static model term, induction in gut",14.6
same,Ch,"CYP3A4; static model term, induction in liver",1.77
same,R1,"CYP2C19; DDI basic model, hepatic",1.03
same,Ah,CYP2C19; [1],0.97
same,Substrate status,OAT3,unlikely to be a substrate
same,IC50,OCT2,~4.5 µM
same,activity at 0.05 µM,OCT2; [2],107 ± 10%
same,activity at 0.2 µM,OCT2; [2],339 ± 5.7%
same,activity at 1 µM,OCT2; [2],178 ± 36%
same,activity at 5 µM,OCT2; [2],48.4 ± 5.2%
same,Inhibitor status,OCT2; up to 5.0 μM,marginal inhibitor
same,EC50 at 2 days,CYP1A2,0.29 µM
same,Effect on exposure of BCRP probe rosuvastatin,BCRP,did not significantly affect the exposure
same,IC50,CYP2B6,121 µM
same,Ki,"CYP2B6; Ki, bupropion, Ki = IC50/2",60.5 µM
same,Ki,"CYP2B6; Kiu, bupropion, unbound Ki",47.8 µM
same,R1,"CYP2B6; bupropion, DDI basic model, hepatic",1.00
same,Ah,"CYP2B6; bupropion, static model term, liver inhibition",1.00
